# Experimental data from PMC6570762, “Identification of a binding protein for sesamin and characterization of its roles in plant growth” (Scientific Reports, 2019).
# Target: T1, Steroleosin B (GST-fused Steroleosin B) (Sesamum indicum, UniProt Q8LKV5)
# T1 construct: gene SOP3
# T1 sequence (Q8LKV5 1-362): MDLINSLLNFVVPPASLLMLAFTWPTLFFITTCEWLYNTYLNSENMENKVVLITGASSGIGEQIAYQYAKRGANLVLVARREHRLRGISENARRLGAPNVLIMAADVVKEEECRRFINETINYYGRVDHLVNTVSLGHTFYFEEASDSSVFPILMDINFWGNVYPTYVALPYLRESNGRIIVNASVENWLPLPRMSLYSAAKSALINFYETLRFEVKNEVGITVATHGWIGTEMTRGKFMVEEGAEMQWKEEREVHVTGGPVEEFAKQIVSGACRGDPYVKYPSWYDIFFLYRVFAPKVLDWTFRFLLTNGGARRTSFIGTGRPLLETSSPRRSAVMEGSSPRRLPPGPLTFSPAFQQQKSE
# Assay: STD-NMR ([…] MHz)
# Format: binding
# Conditions: 60 μM sesamin, 0.5 μM GST-Steroleosin B, stated ligand:protein ratio 60:1; PBS in D2O, 5% DMSO-d6, 298 K; GST alone as control
smiles,measurement,value
c1cc2c(cc1[C@H]1OC[C@H]3[C@@H]1CO[C@@H]3c1ccc3c(c1)OCO3)OCO2 [sesamin],STD-NMR (800 MHz),these results demonstrate the direct interaction between sesamin and Steroleosin B
